Assays:
[1] = Pharmacokinetics of Tac in rats alone or co-administered with deoxyschizandrin or Wuzhi capsule (UHPLC-MS/MS of plasma); type: in vivo, SD rats; conditions: for AUMC0→t / AUC(0-inf) / AUC(0-t) / Cmax / MRT / Tmax / half-life: rat plasma; for AUC(0-inf) / AUC(0-t) / Cmax / MRT / Tmax / half-life: male, SD, rat, plasma
Experimental: The mobile phase A was acetonitrile, and mobile phase B was 0.1% formic acid in water, and the initial mobile phase of gradient elution program was consisted of 60% phase A and 40% phase B. The sample injection volume was set at 10 μL. Gradient elution program was supplied in Supplementary Table S1.
The mass spectrometry detection was achieved on an Agilent 6460A mass spectrometer with ESI source. […] The settings of the mass spectrometer source were as follows: capillary voltage 4,000 V, sheath gas flow 12 L/min, temperature 400°C, dry gas (nitrogen) flow 10 L/min and temperature 350°C, nebulizer pressure 45 psi. All analytes were detected in positive ionization mode. Collision gas (high purity liquid nitrogen) was set at 0.25 MPa. The structures of both two analytes and IS are display in Figure 1.
The pretreatment was performed for the plasma sample by one-step protein precipitation, Briefly, 100 μL sample was transferred into a 1.5 mL EP tube prior to adding with 300 μL methanol(containing 200 ng/mL IS). The mixture was vortex-mixed for 30 s before centrifugation at 17,400 g for 10 min at room temperature, and 100 μL of the supernatant was diluted with 100 μL of acetonitrile (v/v, 1:1) Then, a 10 μL aliquoted of diluted solution was injected into the UHPLC-MS/MS system for analysis.
The protocol of the animal study was approved by the Experimental Animal Ethics Committee of the Shanghai University of Traditional Chinese Medicine. Specific Pathogen Free (SPF) grade SD rats, male, 8 weeks old, 200–250 g, were obtained from the animal experiment center of Shanghai University of Traditional Chinese Medicine. After passing quarantine, the rats were adaptive fed for 2 days. Rats were fasted for 12–14 h, followed by the initiation of pharmacokinetic study of Tac and deoxyschizandrin. This animal study was carried out in accordance with the National Institutes of Health Guide for the Care and Use of Laboratory animals.
In this study, 42 rats were divided equally into seven groups of six rats each, numbered NG2201-NG2207. Among them, the NG2201 and NG2202 group was dosed with 150 mg/kg deoxyschizandrin alone to study the PK of deoxyschizandrin in rats after single and multiple doses; the NG2203 group was administrate dosed with 1.0 mg/kg of Tac; the NG2204-NG2206 groups were dosed with 75, 150, and 300 mg/kg of deoxyschizandrin plus 1.0 mg/kg Tac, respectively, and the NG2207 group was dosed with the Wuzhi capsule (approximately equal to 150 mg/kg of deoxyschizandrin) plus 1.0 mg/kg of Tac ([Teng et al., 2022]). The detailed dosing regimen is shown in Table 2, and all dose in this experiment were calculated according to clinical dose. Blood samples (approximately 300 μL for each) for PK analysis were collected into lithium–heparin tubes. The plasma sampling schedules are outlined below: Blood samples were drawn pre-dose, at 5, 10, 20 and 30 min, and at 1, 1.5, 2, 4, 8 and 24 h after drug administration. The blood samples were centrifuged at 5,000 g for 15 min at 4°C to collect plasma samples, which were placed −80 refrigerator.
The rat plasma collected from each group was pretreated according to the method in section 2.5, and exposure levels of Tac and deoxyschizandrin were determined using the above established UHPLC-MS/MS method and the PKs were calculated using DAS software using non-compartment model (version 2.0, China Pharmacological Society). The data were presented as mean ± SD.

[2] = Stability of the two analytes in rat plasma under different storage conditions; type: in vitro ADME; conditions: n=5
Experimental: To prepare the stock solution, approximately 2.00 mg of Tac, deoxyschizandrin and IS were accurately weighed and dissolved in methanol, respectively. The stock solutions of Tac and deoxyschizandrin with a final concentration of 1.00 mg/mL was obtained, and the IS stock solution was diluted to 100.00 ng/mL using methanol before use. The stock solutions were aliquoted and stored at −80°C. Combined working solutions were prepared by diluting the stock solution using 10% aqueous methanol at the following concentrations: 5.00, 10.00, 20.00, 50.00, 100.00, 200.00, 500.00, 1,000.00, and 2,000.00 ng/mL. Blank rat plasma was used to prepare the calibration standards. Quality-control (QC) samples of two analytes were prepared separately in the same manner at three concentrations, namely, 10 (low concentration), 100 (middle), 1,000 ng/mL (high), and all QC samples were stored at −80°C.
The methodology validation was completed according to FDA guidelines and Chinese Pharmacopoeia (2015 edition), and the linearity, inter- and intra-precision and accuracy, matrix effect and extraction recovery, stability and specificity of this method were validated according to previous study ([Lu et al., 2022]; [Wang et al., 2022]; [Shu et al., 2016]).

[3] = parameters: method as in Abushammala, 2021; conditions: ref Abushammala, 2021; cited from earlier work
[4] = 1 mg/kg, NG2203: 1.0 mg/kg of Tac alone
[5] = 1 mg/kg, NG2204: 1.0 mg/kg of Tac plus 75 mg/kg deoxyschizandrin
[6] = 1 mg/kg, NG2205: 1.0 mg/kg of Tac plus 150 mg/kg deoxyschizandrin
[7] = 1 mg/kg, NG2206: 1.0 mg/kg of Tac plus 300 mg/kg deoxyschizandrin
[8] = 1 mg/kg, NG2207: 1.0 mg/kg of Tac plus Wuzhi capsule (equivalent to 150 mg/kg deoxyschizandrin)
[9] = 1 mg/kg, Tac 1 mg/kg alone (NG2203)
[10] = 1.0 mg/kg of Tac plus Wuzhi capsule (equivalent to 150 mg/kg deoxyschizandrin)

Question: Which results are given for `C=CC[C@@H]1/C=C(\C)C[C@H](C)C[C@H](OC)[C@H]2O[C@@](O)(C(=O)C(=O)N3CCCC[C@H]3C(=O)O[C@H](/C(C)=C/[C@@H]3CC[C@@H](O)[C@H](OC)C3)[C@H](C)[C@@H](O)CC1=O)[C@H](C)C[C@@H]2OC` [Tac, Tacrolimus]?
Answer: increase of C max of Tac after co-administered deoxyschizandrin ([1]; 75, 150, 300 mg/kg deoxyschizandrin plus 1 mg/kg Tac vs Tac alone, rats): 3-4 fold; AUMC0→t ([1]; NG2203: 1.0 mg/kg of Tac alone): 613.05 ± 182.15 ng. h2/mL; AUMC0→t ([1]; NG2204: 1.0 mg/kg of Tac plus 75 mg/kg deoxyschizandrin): 2107.22 ± 701.25 ng. h2/mL; AUMC0→t ([1]; NG2205: 1.0 mg/kg of Tac plus 150 mg/kg deoxyschizandrin): 1915.12 ± 621.91 ng. h2/mL; AUMC0→t ([1]; NG2206: 1.0 mg/kg of Tac plus 300 mg/kg deoxyschizandrin): 3,315.05 ± 1,100.65 ng. h2/mL; AUMC0→t ([1]; NG2207: 1.0 mg/kg of Tac plus Wuzhi capsule (equivalent to 150 mg/kg deoxyschizandrin)): 2395.69 ± 1,225.18 ng. h2/mL; mean C max lower with Wuzhi capsule compared with deoxyschizandrin ([1]; Tac 1.0 mg/kg plus Wuzhi capsule vs plus 150 mg/kg deoxyschizandrin, rats): 11.23 ng/mL; AUC(0-inf) [1, 4]: 105 ± 31.3 ng·h/mL; AUC(0-t) [1, 4]: 95.1 ± 32.6 ng·h/mL; Cmax [1, 4]: 14.3 ± 4.73 ng/mL; MRT [1, 4]: 6.54 ± 0.55 h; Tmax [1, 4]: 1.33 ± 0.52 h; half-life [1, 4]: 438 ± 184 min; AUC(0-inf) [1, 5]: 351 ± 117 ng·h/mL; AUC(0-t) [1, 5]: 314 ± 99.4 ng·h/mL; Cmax [1, 5]: 43.2 ± 13.7 ng/mL; MRT [1, 5]: 6.69 ± 0.25 h; Tmax [1, 5]: 1.17 ± 0.41 h; half-life [1, 5]: 439 ± 62.4 min; AUC(0-inf) [1, 6]: 331 ± 98 ng·h/mL; AUC(0-t) [1, 6]: 315 ± 92.2 ng·h/mL; Cmax [1, 6]: 54.5 ± 14.4 ng/mL; MRT [1, 6]: 6.02 ± 0.53 h; Tmax [1, 6]: 1.08 ± 0.49 h; half-life [1, 6]: 302 ± 117 min; AUC(0-inf) [1, 7]: 534 ± 176 ng·h/mL; AUC(0-t) [1, 7]: 486 ± 149 ng·h/mL; Cmax [1, 7]: 67.4 ± 18.6 ng/mL; MRT [1, 7]: 6.76 ± 0.31 h; Tmax [1, 7]: 0.75 ± 0.27 h; half-life [1, 7]: 395 ± 97.2 min; AUC(0-inf) [1, 8]: 388 ± 217 ng·h/mL; AUC(0-t) [1, 8]: 340 ± 193 ng·h/mL; Cmax [1, 8]: 43.2 ± 21.9 ng/mL; MRT [1, 8]: 7.23 ± 1.04 h; Tmax [1, 8]: 1.5 ± 0.55 h; half-life [1, 8]: 496 ± 132 min; AUC(0-inf) [1, 9]: 105 ± 31.3 ng·h/mL; AUC(0-t) [1, 9]: 95.1 ± 32.6 ng·h/mL; AUC(0-t) ([1]; 1 mg/kg, Tac alone (NG2203)): 95.1 ± 32.6 ng·h/mL; AUC(0-inf) [1, 10]: 388 ± 217 ng·h/mL; AUC(0-t) [1, 10]: 340 ± 193 ng·h/mL; AUC(0-t) ([1]; Tac after co-administration of deoxyschizandrin (NG2205)): 315 ± 92.2 ng·h/mL; AUC(0-t) ([1]; Tac co-administrated with deoxyschizandrin (NG2205)): 315 ± 92.2 ng·h/mL; Auto-sampler stability (24h, 4℃) Mean ± SD ([2]; Nominal Conc. 10 ng/mL): 10.23±0.51; Bench-top stability (8h, RT) Mean ± SD ([2]; Nominal Conc. 10 ng/mL): 10.39±0.41; Frozen-thaw stability (3 times) Mean ± SD ([2]; Nominal Conc. 10 ng/mL): 10.55±0.54; Long-term stability (1 month, -80℃) Mean ± SD ([2]; Nominal Conc. 10 ng/mL): 10.35±0.14; Auto-sampler stability (24h, 4℃) Mean ± SD ([2]; Nominal Conc. 100 ng/mL): 103.90±2.74; Bench-top stability (8h, RT) Mean ± SD ([2]; Nominal Conc. 100 ng/mL): 102.33±1.53; Frozen-thaw stability (3 times) Mean ± SD ([2]; Nominal Conc. 100 ng/mL): 110.23±5.21; Long-term stability (1 month, -80℃) Mean ± SD ([2]; Nominal Conc. 100 ng/mL): 101.09±1.01; Auto-sampler stability (24h, 4℃) Mean ± SD ([2]; Nominal Conc. 1000 ng/mL): 1010.05±13.85; Bench-top stability (8h, RT) Mean ± SD ([2]; Nominal Conc. 1000 ng/mL): 1009.93±11.80; Frozen-thaw stability (3 times) Mean ± SD ([2]; Nominal Conc. 1000 ng/mL): 1025.45±12.50; Long-term stability (1 month, -80℃) Mean ± SD ([2]; Nominal Conc. 1000 ng/mL): 1008.72±11.30; average bioavailability [3]: 25%
